# Results from patent US10745382B2 (BRISTOL-MYERS SQUIBB COMPANY, priority 2015, dated 2020).
# Like-named read-outs stand apart in the source and are kept apart here.
# Molecular target: T1, PD-1/PD-L1 (Homo sapiens, UniProt Q9NZQ7)
# T1 construct: made in house; host or cells: HEK293T
# Experiment: PD-1/PD-L1 Homogenous Time-Resolved Fluorescence (HTRF) binding assay
# Conditions: PD-L1-His 10 nM, PD-1-Ig 20 nM, read-out: Range or IC50
# Summary of the method: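 Detection by europium cryptate anti-Ig plus APC anti-His (1 nM and 20 nM final) with HTRF signal. Buffer was dPBS, 0.1% BSA, 0.05% Tween-20.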
# T1 sequence (Q9NZQ7 with tags, fused parts or gaps): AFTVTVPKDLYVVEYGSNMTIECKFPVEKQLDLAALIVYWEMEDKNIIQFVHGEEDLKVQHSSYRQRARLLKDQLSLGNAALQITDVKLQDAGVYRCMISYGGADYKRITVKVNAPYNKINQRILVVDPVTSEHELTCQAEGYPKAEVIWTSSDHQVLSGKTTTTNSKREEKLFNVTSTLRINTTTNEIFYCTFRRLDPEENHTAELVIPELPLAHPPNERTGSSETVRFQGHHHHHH
smiles,measurement,setting,value
"Cc1c(COc2cc(OCc3cncc(C#N)c3)c(CN3CCCC[C@H]3C(=O)O)cc2Cl)cccc1-c1cccc(OCCCN2CCCC(CO)C2)c1C (stereo partly drawn) [Example 2206, (2S)-1-(5-chloro-2-((5-cyanopyridin-3-yl)methoxy)-4-((3′-(3-(3-(hydroxymethyl)piperidin-1-yl)propoxy)-2,2′-dimethylbiphenyl-3-yl)methoxy)benzyl)piperidine-2-carboxylic Acid]",IC50,value given as range class,0.21 to 10 nM
"Cc1c(COc2cc(OCc3cncc(C#N)c3)c(CN3CCCC[C@H]3C(=O)O)cc2Cl)cccc1-c1cccc(OCCCN2CCCC(C(N)=O)C2)c1C (stereo partly drawn) [Example 2207, (2S)-1-(4-((3′-(3-(3-carbamoylpiperidin-1-yl)propoxy)-2,2′-dimethylbiphenyl-3-yl)methoxy)-5-chloro-2-((5-cyanopyridin-3-yl)methoxy)benzyl)piperidine-2-carboxylic Acid]",IC50,value given as range class,0.21 to 10 nM
"CCN(CC)C(=O)C1CCCN(CCCOc2cccc(-c3cccc(COc4cc(OCc5cncc(C#N)c5)c(CN5CCCC[C@H]5C(=O)O)cc4Cl)c3C)c2C)C1 (stereo partly drawn) [Example 2208, (2S)-1-(5-chloro-2-((5-cyanopyridin-3-yl)methoxy)-4-((3′-(3-(3-(diethylcarbamoyl)piperidin-1-yl)propoxy)-2,2′-dimethylbiphenyl-3-yl)methoxy)benzyl)piperidine-2-carboxylic Acid]",IC50,value given as range class,0.21 to 10 nM
"Cc1c(COc2cc(OCc3cncc(C#N)c3)c(CN3CCCC[C@H]3C(=O)O)cc2Cl)cccc1-c1cccc(OCCCN[C@@H](Cc2ccncc2)C(=O)O)c1C [Example 2209, (2S)-1-(4-((3′-(3-((S)-1-carboxy-2-(pyridin-4-yl)ethylamino)propoxy)-2,2′-dimethylbiphenyl-3-yl)methoxy)-5-chloro-2-((5-cyanopyridin-3-yl)methoxy)benzyl)piperidine-2-carboxylic Acid]",IC50,value given as range class,10 to 100 nM
"Cc1c(COc2cc(OCc3cncc(C#N)c3)c(CN3CCCC[C@H]3C(=O)O)cc2Cl)cccc1-c1cccc(OCCCNCCc2ccncc2)c1C [Example 2210, (2S)-1-(5-chloro-2-((5-cyanopyridin-3-yl)methoxy)-4-((2,2′-dimethyl-3′-(3-(2-(pyridin-4-yl)ethylamino)propoxy)biphenyl-3-yl)methoxy)benzyl)piperidine-2-carboxylic Acid]",IC50,value given as range class,0.21 to 10 nM
"Cc1c(COc2cc(OCc3cncc(C#N)c3)c(CN3CCCC[C@H]3C(=O)O)cc2Cl)cccc1-c1cccc(OCCCN2CCN(CCO)CC2)c1C [Example 2211, (2S)-1-(5-chloro-2-((5-cyanopyridin-3-yl)methoxy)-4-((3′-(3-(4-(2-hydroxyethyl)piperazin-1-yl)propoxy)-2,2′-dimethylbiphenyl-3-yl)methoxy)benzyl)piperidine-2-carboxylic Acid]",IC50,value given as range class,0.21 to 10 nM
"Cc1c(COc2cc(OCc3cncc(C#N)c3)c(CN3CCCC[C@H]3C(=O)O)cc2Cl)cccc1-c1cccc(OCCCN2CCOCC2)c1C [Example 2212, (2S)-1-(5-chloro-2-((5-cyanopyridin-3-yl)methoxy)-4-((2,2′-dimethyl-3′-(3-morpholinopropoxy)biphenyl-3-yl)methoxy)benzyl)piperidine-2-carboxylic Acid]",IC50,value given as range class,0.21 to 10 nM
"Cc1c(COc2cc(OCc3cncc(C#N)c3)c(CN3CCCC[C@H]3C(=O)O)cc2Cl)cccc1-c1cccc(OCCCN2CCCCC2)c1C [Example 2213, (2S)-1-(5-chloro-2-((5-cyanopyridin-3-yl)methoxy)-4-((2,2′-dimethyl-3′-(3-(piperidin-1-yl)propoxy)biphenyl-3-yl)methoxy)benzyl)piperidine-2-carboxylic Acid]",IC50,value given as range class,0.21 to 10 nM
"Cc1c(COc2cc(OCc3cncc(C#N)c3)c(CN3CCCC[C@H]3C(=O)O)cc2Cl)cccc1-c1cccc(OCCCN2CCC(CO)CC2)c1C [Example 2214, (2S)-1-(5-chloro-2-((5-cyanopyridin-3-yl)methoxy)-4-((3′-(3-(4-(hydroxymethyl)piperidin-1-yl)propoxy)-2,2′-dimethylbiphenyl-3-yl)methoxy)benzyl)piperidine-2-carboxylic Acid]",IC50,value given as range class,0.21 to 10 nM
"CC(=O)NC1CCN(CCCOc2cccc(-c3cccc(COc4cc(OCc5cncc(C#N)c5)c(CN5CCCC[C@H]5C(=O)O)cc4Cl)c3C)c2C)C1 (stereo partly drawn) [Example 2215, (2S)-1-(4-((3′-(3-(3-acetamidopyrrolidin-1-yl)propoxy)-2,2′-dimethylbiphenyl-3-yl)methoxy)-5-chloro-2-((5-cyanopyridin-3-yl)methoxy)benzyl)piperidine-2-carboxylic Acid]",IC50,value given as range class,0.21 to 10 nM
"Cc1c(COc2cc(OCc3cncc(C#N)c3)c(CN3CCCC[C@H]3C(=O)O)cc2Cl)cccc1-c1cccc(OCCCN2CCN(c3ccccn3)CC2)c1C [Example 2216, (2S)-1-(5-chloro-2-((5-cyanopyridin-3-yl)methoxy)-4-((2,2′-dimethyl-3′-(3-(4-(pyridin-2-yl)piperazin-1-yl)propoxy)biphenyl-3-yl)methoxy)benzyl)piperidine-2-carboxylic Acid]",IC50,numeric IC50,30 nM
"Cc1c(COc2cc(OCc3cncc(C#N)c3)c(CN3CCCC[C@H]3C(=O)O)cc2Cl)cccc1-c1cccc(OCCCN2CCN(CC(=O)NC(C)C)CC2)c1C [Example 2217, (2S)-1-(5-chloro-2-((5-cyanopyridin-3-yl)methoxy)-4-((3′-(3-(4-(2-(isopropylamino)-2-oxoethyl)piperazin-1-yl)propoxy)-2,2′-dimethylbiphenyl-3-yl)methoxy)benzyl)piperidine-2-carboxylic Acid]",IC50,value given as range class,0.21 to 10 nM
"Cc1c(COc2cc(OCc3cncc(C#N)c3)c(CN3CCCC[C@H]3C(=O)O)cc2Cl)cccc1-c1cccc(OCCCN(C)CCc2ccccc2)c1C [Example 2218, (2S)-1-(5-chloro-2-((5-cyanopyridin-3-yl)methoxy)-4-((2,2′-dimethyl-3′-(3-(methyl(phenethyl)amino)propoxy)biphenyl-3-yl)methoxy)benzyl)piperidine-2-carboxylic Acid]",IC50,value given as range class,0.21 to 10 nM
"COc1ccccc1N1CCN(CCCOc2cccc(-c3cccc(COc4cc(OCc5cncc(C#N)c5)c(CN5CCCC[C@H]5C(=O)O)cc4Cl)c3C)c2C)CC1 [Example 2219, (2S)-1-(5-chloro-2-((5-cyanopyridin-3-yl)methoxy)-4-((3′-(3-(4-(2-methoxyphenyl)piperazin-1-yl)propoxy)-2,2′-dimethylbiphenyl-3-yl)methoxy)benzyl)piperidine-2-carboxylic Acid]",IC50,value given as range class,0.21 to 10 nM
"Cc1c(COc2cc(OCc3cncc(C#N)c3)c(CN3CCCC[C@H]3C(=O)O)cc2Cl)cccc1-c1cccc(OCCCNC[C@H](O)c2ccccc2)c1C [Example 2220, (2S)-1-(5-chloro-2-((5-cyanopyridin-3-yl)methoxy)-4-((3′-(3-((R)-2-hydroxy-2-phenylethylamino)propoxy)-2,2′-dimethylbiphenyl-3-yl)methoxy)benzyl)piperidine-2-carboxylic Acid]",IC50,value given as range class,0.21 to 10 nM
"Cc1c(COc2cc(OCc3cncc(C#N)c3)c(CN3CCCC[C@H]3C(=O)O)cc2Cl)cccc1-c1cccc(OCCCNC[C@@H](O)c2ccccc2)c1C [Example 2221, (2S)-1-(5-chloro-2-((5-cyanopyridin-3-yl)methoxy)-4-((3′-(3-((S)-2-hydroxy-2-phenylethylamino)propoxy)-2,2′-dimethylbiphenyl-3-yl)methoxy)benzyl)piperidine-2-carboxylic Acid]",IC50,value given as range class,0.21 to 10 nM
"Cc1c(COc2cc(OCc3cncc(C#N)c3)c(CN3CCCC[C@H]3C(=O)O)cc2Cl)cccc1-c1cccc(OCCCNCC(O)c2ccccn2)c1C (stereo partly drawn) [Example 2222, (2S)-1-(5-chloro-2-((5-cyanopyridin-3-yl)methoxy)-4-((3′-(3-(2-hydroxy-2-(pyridin-2-yl)ethylamino)propoxy)-2,2′-dimethylbiphenyl-3-yl)methoxy)benzyl)piperidine-2-carboxylic Acid]",IC50,value given as range class,0.21 to 10 nM
"Cc1c(COc2cc(OCc3cncc(C#N)c3)c(CN3CCCC[C@H]3C(=O)O)cc2Cl)cccc1-c1cccc(OCCCN2CCC[C@@H](O)C2)c1C [Example 2223, (2S)-1-(5-chloro-2-((5-cyanopyridin-3-yl)methoxy)-4-((3′-(3-((R)-3-hydroxypiperidin-1-yl)propoxy)-2,2′-dimethylbiphenyl-3-yl)methoxy)benzyl)piperidine-2-carboxylic Acid]",IC50,value given as range class,0.21 to 10 nM
"Cc1c(COc2cc(OCc3cncc(C#N)c3)c(CN3CCCC[C@H]3C(=O)O)cc2Cl)cccc1-c1cccc(OCCCN2CCC[C@H](O)C2)c1C [Example 2224, (2S)-1-(5-chloro-2-((5-cyanopyridin-3-yl)methoxy)-4-((3′-(3-((S)-3-hydroxypiperidin-1-yl)propoxy)-2,2′-dimethylbiphenyl-3-yl)methoxy)benzyl)piperidine-2-carboxylic Acid]",IC50,value given as range class,0.21 to 10 nM
"Cc1c(COc2cc(OCc3cncc(C#N)c3)c(CN3CCCC[C@H]3C(=O)O)cc2Cl)cccc1-c1cccc(OCCCNCCc2ccccn2)c1C [Example 2225, (2S)-1-(5-chloro-2-((5-cyanopyridin-3-yl)methoxy)-4-((2,2′-dimethyl-3′-(3-(2-(pyridin-2-yl)ethylamino)propoxy)biphenyl-3-yl)methoxy)benzyl)piperidine-2-carboxylic Acid]",IC50,value given as range class,0.21 to 10 nM
"Cc1c(COc2cc(OCc3cncc(C#N)c3)c(CN3CCCC[C@H]3C(=O)O)cc2Cl)cccc1-c1cccc(OCCCN(C)Cc2cccnc2)c1C [Example 2226, (2S)-1-(5-chloro-2-((5-cyanopyridin-3-yl)methoxy)-4-((2,2′-dimethyl-3′-(3-(methyl(pyridin-3-ylmethyl)amino)propoxy)biphenyl-3-yl)methoxy)benzyl)piperidine-2-carboxylic Acid]",IC50,value given as range class,0.21 to 10 nM
"Cc1c(COc2cc(OCc3cncc(C#N)c3)c(CN3CCCC[C@H]3C(=O)O)cc2Cl)cccc1-c1cccc(OCCCNC23CC4CC(CC(C4)C2)C3)c1C [Example 2227, (S)-1-(4-((3′-(3-((3s,5s,7s)-adamantan-1-ylamino)propoxy)-2,2′-dimethyl-[1,1′-biphenyl]-3-yl)methoxy)-5-chloro-2-((5-cyanopyridin-3-yl)methoxy)benzyl)piperidine-2-carboxylic Acid]",IC50,value given as range class,0.21 to 10 nM
